# Where a chain is given by its changes, count along the chain named.
# What was measured:
# bovine gamma crystallins = assay: Screen: H2O2 and heat mediated aggregation of bovine gamma crystallins, turbidimetry at 600 nm; assay type: biochemical; details: bovine γ-crystallin-rich proteins, oxidant stress 24 h and/or thermal stress 72 °C 20 min
# Procedure: For the initial screen, a microtiter plate assay was developed in which bovine crystallins (2 mg/ml of 50 mM K3PO4 buffer, pH 7.2 [buffer A]) were exposed to H2O2 at varying concentrations (1–50 mM) for 12 to 36 h, upon which turbidity developed (at 50 mM H2O2 concentration) in both β- and γ-crystallins (Fig. 1, A and B). […] This was determined by turbidimetry at 600 nm (Fig. 1C) and confirmed using visual assessment of solution transparency over a fine text as well as the presence of cloudy aggregates visible by dark field microscopy (Fig. 1D). The drug:protein stoichiometric ratio was about 5:1. The wavelength of 600 nm was chosen to minimize interference by colored compounds, many of which absorb below 500 nm (Fig. 1E).
# Wells were filled with 90 μl calf γ-crystallin-rich protein solution (pool 4 at 2 mg/ml) followed by 0.5 to 5.0 μl of drug (all 10 mM stock solution in DMSO) as supplied by the manufacturer and 10 μl H2O2 (450 mM stock solution in water) and sealed with sticky Applied Biosystems MicroAmp Clear Adhesive films (Life Technologies). Control wells received DMSO only. […] In order to quantitate the impact of the drugs on aggregation, a fitness plot was created (Fig. 1 C) that allowed us to identify wells with enhanced/worsening versus suppressed crystallin aggregation. In addition, aggregation in each well was also visually assessed by two independent “blinded” readers for the ability to read fine print through each well by placing the plates over small font text (Fig. 1D). Both machine and visual readouts were reconciled in order to increase robustness.
# OPJ-MγS = biological target: T1, OPJ-MγS (Mus musculus, UniProt O35486, F10S); assay: Thermal unfolding (Tm), OPJ-MγS; assay type: biochemical; details: 10 μM protein, 100 μM drug; for Tm (°C) OPJ-MGS N-ter: Con 48; for Tm (°C) OPJ-MGS C-ter: Con 63
# T1 construct: made in house; host or cells: E. coli BL21(DE3) pLysS, pET17b vector
# T1 sequence (O35486 1-178 F10S): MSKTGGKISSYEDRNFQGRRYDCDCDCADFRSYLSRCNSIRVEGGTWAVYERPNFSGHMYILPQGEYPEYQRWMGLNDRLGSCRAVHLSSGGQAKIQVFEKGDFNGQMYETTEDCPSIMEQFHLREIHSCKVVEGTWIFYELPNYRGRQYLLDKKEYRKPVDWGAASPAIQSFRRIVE
# Procedure: (§1) Thermal denaturation study was monitored using fluorescence spectroscopy. Protein solutions (10 μM) in the presence and absence of drugs or bis-ANS (100 μM) were heated continuously from 30 to 95 °C, and the fluorescence data were collected every 5 °C after 1 min equilibration at the given temperature. Unfolding data were fit to Greene and Pace’s two-state model ([82]) using GraphPad Prism software (GraphPad Software, Inc).
# WT-MγS = biological target: T2, WT-MγS (Mus musculus, UniProt O35486); assay: Thermal unfolding (Tm), WT-MγS; assay type: biochemical; details: 10 μM protein, 100 μM drug; Con 70
# T2 construct: made in house; host or cells: E. coli BL21(DE3) pLysS, pET17b vector
# T2 sequence (O35486 1-178): T1 sequence (O35486 1-178 F10S) with S10F
# Procedure: as §1
# HγD = biological target: T3, HγD (Homo sapiens, UniProt P07320); assay: Steady-state tryptophan fluorescence quenching, HγD; assay type: binding
# T3 construct: made in house; host or cells: E. coli BL21(DE3) pLysS, pET3d vector
# T3 sequence (P07320 1-174): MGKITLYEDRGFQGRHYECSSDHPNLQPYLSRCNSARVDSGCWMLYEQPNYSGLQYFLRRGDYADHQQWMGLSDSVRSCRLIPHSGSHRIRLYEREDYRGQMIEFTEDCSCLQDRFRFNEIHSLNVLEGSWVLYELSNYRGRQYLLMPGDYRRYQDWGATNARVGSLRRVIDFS
# Procedure: Tryptophan fluorescence can be used for studying conformational changes resulting from protein–drug interactions ([44]). Fluorescence quenching of aromatic fluorophores in HγD and MγS by drugs C and G at three different temperatures (25, 30, and 37 °C) was studied in the presence of varying concentrations of drug C and G (0–250 μM). As shown in Figs. S5A and S6A, both HγD and MγS have a strong emission peak at 330 nm when excited at 295 nm. In both cases, quenching occurs with gradual addition of C and G at all three temperatures. Overall, quenching of Trp fluorescence emission is at highest at 25 °C (Figs. S5A and S6A) followed by 30 °C and lowest at 37 °C. […] The slope of plot Fo/F versus [Q] gives Ksv (Figs. S5B and S6B), whereas Kb is obtained from intercept of plot log (Fo/F − 1) versus log[Q] (Figs. S5C and S6C). […] For drug M, Kb values are of the order 10^2 M^−1 only. Fluorescence quenching can be either because of random collision between the molecules (dynamic interaction) or because of actual affinity between a protein pocket and drug (static interaction). Dynamic interactions are weaker and nonspecific in nature, whereas static interactions are stronger and more specific ([47]). For more information on the type of interaction, Kq was calculated and compared with the standard value of 2 × 10^10 M^−1s^−1, which is the maximum scatter collision quenching constant of various quenchers with biopolymers ([48]). […] Furthermore, the differential response of Ksv toward temperature change also clarifies the type of quenching. In static quenching, Ksv decreases with an increase in temperature because of the formation of complex with protein, which undergoes dissociation on increasing temperature.
# To gauge the strength of the major forces involved in drug–protein complex formation, change in free energy was calculated using Gibbs–Helmholtz equation (Equation 3).(3) ΔG=-RTlnKb ([50]) where, R is gas constant and its value is […], T is absolute temperature (Kelvin) and Kb is binding constant whose value is already calculated using Equation 2. […] Free energy changes are negative at all three temperatures, being maximal at 25 °C. For C, G, and M interaction with HγD, ΔG values were −6.4, −7.9, and −1.9 kcal/mol (at 25 °C), that is, similar to those obtained by molecular docking as described later. These values also reflect the fact that drug M had the least protective effect on unfolding or aggregation of various γ-crystallins (Figs. 2 and S4).
# All the steady-state fluorescence measurements were recorded on Fluoromax Spectrofluorometer (Horiba Scientific). For fluorescence quenching measurements, 10 μM of both HγD and MγS crystallins were titrated with varying concentrations of drugs C, G, and M (0–250 μM) at 25, 30, and 37 °C. These samples were excited at 295 nm, and the fluorescence emission was collected from 310 to 410 nm.
smiles,measurement,setting,value
"Cc1cc(C(C#N)c2ccc(Cl)cc2)c(Cl)cc1NC(=O)c1cc(I)cc(I)c1O (stereo not shown) [drug C, Closantel]",Antiaggregation activity,bovine gamma crystallins,Medium strong dual inhibitor
same,Tm (°C) OPJ-MGS N-ter,OPJ-MγS,50 °C
same,Tm (°C) OPJ-MGS C-ter,OPJ-MγS,69 °C
same,Tm (°C) WT-MGS,WT-MγS,72 °C
same,KSV,HγD; 25 °C,4.215 M^−1 ×10^3
same,Kq,HγD; 25 °C,0.739 M^−1 s^−1 ×10^12
same,ΔG,HγD; 25 °C,−6.4 kcalM^−1
same,KSV,HγD; 30 °C,4.197 M^−1 ×10^3
same,Kq,HγD; 30 °C,0.736 M^−1 s^−1 ×10^12
same,ΔG,HγD; 30 °C,−6.2 kcalM^−1
same,KSV,HγD; 37 °C,4.107 M^−1 ×10^3
same,Kq,HγD; 37 °C,0.72 M^−1 s^−1 ×10^12
same,ΔG,HγD; 37 °C,−5.9 kcalM^−1
same,ΔG,HγD; at 25 °C,-26.8 kJ/mol
"O=C(O)CCCCCCCCCCCC[C@@H]1C=CCC1 [drug M, Chaulmoogric acid]",Antiaggregation activity,bovine gamma crystallins,Dual heat shock inhibitor + antioxidant
same,Tm (°C) OPJ-MGS N-ter,OPJ-MγS,48 °C
same,Tm (°C) OPJ-MGS C-ter,OPJ-MγS,63 °C
same,Tm (°C) WT-MGS,WT-MγS,68 °C
same,KSV,HγD; 25 °C,0.288 M^−1 ×10^3
same,Kq,HγD; 25 °C,0.051 M^−1 s^−1 ×10^12
same,ΔG,HγD; 25 °C,−1.9 kcalM^−1
same,KSV,HγD; 30 °C,0.507 M^−1 ×10^3
same,Kq,HγD; 30 °C,0.08 M^−1 s^−1 ×10^12
same,ΔG,HγD; 30 °C,−2.5 kcalM^−1
same,KSV,HγD; 37 °C,0.680 M^−1 ×10^3
same,ΔG,HγD; 37 °C,−2.6 kcalM^−1
same,ΔG,HγD; at 25 °C,-7.95 kJ/mol
"COC(=O)/C=C/C(C)=C\C=C\C(C)=C\C=C\C=C(C)\C=C\C=C(C)\C=C\C(=O)O [drug B, Bixin]",Antiaggregation activity,bovine gamma crystallins,Medium heat shock inhibitor
"CC(C)=CCCC1(C)C=Cc2c(O)c3c(c(CC=C(C)C)c2O1)OC12C(=CC4CC1C(C)(C)OC2(C/C=C(/C)C(=O)O)C4O)C3=O (stereo not shown) [drug D, dihydrogambogic acid]",Antiaggregation activity,bovine gamma crystallins,Strong heat shock inhibitor
"CC(C)=CCC[C@]1(C)C=Cc2c(O)c3c(c(CC=C(C)C)c2O1)O[C@]12C(=C[C@@H]4C[C@H]1C(C)(C)O[C@@]2(C/C=C(/C)C(=O)O)C4=O)C3=O [drug G, Gambogic acid]",Antiaggregation activity,bovine gamma crystallins,Strong heat shock inhibitor
same,Tm (°C) OPJ-MGS N-ter,OPJ-MγS,50 °C
same,Tm (°C) OPJ-MGS C-ter,OPJ-MγS,70 °C
same,Tm (°C) WT-MGS,WT-MγS,73 °C
same,KSV,HγD; 25 °C,10.252 M^−1 ×10^3
same,Kq,HγD; 25 °C,1.79 M^−1 s^−1 ×10^12
same,ΔG,HγD; 25 °C,−7.9 kcalM^−1
same,KSV,HγD; 30 °C,8.440 M^−1 ×10^3
same,Kq,HγD; 30 °C,1.47 M^−1 s^−1 ×10^12
same,ΔG,HγD; 30 °C,−7.7 kcalM^−1
same,KSV,HγD; 37 °C,7.880 M^−1 ×10^3
same,Kq,HγD; 37 °C,1.38 M^−1 s^−1 ×10^12
same,ΔG,HγD; 37 °C,−7.2 kcalM^−1
same,ΔG,HγD; at 25 °C,-33.1 kJ/mol

# Reference: PMC9525908, “α-Crystallin chaperone mimetic drugs inhibit lens γ-crystallin aggregation: Potential role for cataract prevention” (The Journal of Biological Chemistry, 2022)
